Values of other authors as cited in patent US20110303570A1, “PACKAGE OF SOLID PHARMACEUTICAL PREPARATION” (Astellas Pharma Inc., priority 2009, published 2011).

Conditions: administered either orally or directly into the colon of a mammal

Bioavailability as gabapentin: high
Structure (SMILES): CC(OC(=O)NCC1(CC(=O)O)CCCCC1)OC(=O)C(C)C (stereo not drawn) [1-{[(α-isobutanoyloxyethoxy)carbonyl]aminomethyl}-1-cyclohexane acetic acid]
